Experiment: Human HepG2 cell viability assay in 384 well format
Format: toxicity, cell-based
Set-up: dose 125 nL, time 70.5 hour; cytotoxicity at 70.5 h: concentration not given beside the values
Conditions: HepG2 cells, read-out: Inhibition

Row | SMILES | cytotoxicity at 70.5 h [%]
1 | CS(=O)(=O)N1CCC(c2cncc(Cl)n2)CC1 | 27.2
2 | COc1ccc(C(=O)NCCCNc2ccc(C(F)(F)F)cn2)cc1 | -17.2
3 | COc1ccc(C2CCCN2c2ccc(C#N)cn2)c(OC)c1 (stereo not drawn) | 4.11
4 | CNc1nc(C)c(C(=O)N2CCCCC2CCN2CCOCC2)s1 (stereo not drawn) | -0.313
5 | CCc1ccc(C2COCCN2C(=O)Nc2cccc(C(C)=O)c2)o1 (stereo not drawn) | -1.25
6 | O=C(COc1coc(CN2CCCCC2)cc1=O)Nc1cccc(Cl)c1 | -7.03
7 | CCNC(=O)c1ccc(NC(=O)N(C)Cc2cc(C)on2)c(C)c1 | -5.12
8 | Cc1cc(NC(=O)NCCc2ccccc2)n(C)n1 | -7.09
9 | COc1ccc(OC)c(Nc2nc3c(C)nn(C)c3c(=O)n2C)c1 | 7.63
10 | O=S(=O)(Cc1ccccc1)NCC1CCCN(Cc2cccs2)C1 (stereo not drawn) | -0.373
11 | CC(c1cc(F)ccc1F)N(C)CCS(=O)(=O)CCC(N)=O (stereo not drawn) | -8.99
12 | Cc1noc(C)c1CNC(=O)N1Cc2ccccc2N(C)CC1C (stereo not drawn) | 7.21
13 | COCc1cc(N2CCc3onc(-c4cccc(OC)c4)c3C2)ncn1 | -5.12
14 | c1ccc(Cn2cc3c(n2)C(COCC2CC2)OCC3)nc1 (stereo not drawn) | 8.53
15 | Cc1cc(C)cc(OCCC(=O)N2CCCC(n3cncn3)C2)c1 (stereo not drawn) | -15.5
16 | O=C(CC(F)(F)F)N1C[C@H]2CC[C@@H]1CN(Cc1ccccc1)C2 | -3.61
17 | NC(=O)Cn1cc(NC(=O)N2CCCC(O)C2)cn1 (stereo not drawn) | -4.87
18 | c1ncc2c(n1)CN(c1ncnc3[nH]ccc13)CC2 | -4.47
19 | COc1ccc(CNC(=O)c2ccc(=O)n(C)c2)cc1C | -9.61
20 | Cc1nccc([C@H]2C[C@@H]3CCN(C(=O)c4c(C)noc4C)C[C@H]3O2)n1 | 7.48
21 | CC(Cn1cccn1)NC(=O)N1CCN(Cc2cccs2)CC1 (stereo not drawn) | 17
22 | O=C1[C@@H]2CCN(CC3CC3)C[C@@H]2OCCN1c1cccnc1 | 6.28
23 | CC(C)CC(=O)NC1CC2(CCN(CCF)CC2)Oc2ccccc21 (stereo not drawn) | -6.46

Row | SMILES | cytotoxicity at 70.5 h [%]
24 | CCOCCN1CCN(CC(=O)NC2(C#N)CCCC2)CC1C (stereo not drawn) | 10.7
25 | Cc1ccc2nc(CN3CCCCC3CCN3CCOCC3)cn2c1 (stereo not drawn) | -10.8
26 | O=C(Nc1ccccc1)C1=NOC2(CCCN(C(=O)N3CCCC3)C2)C1 (stereo not drawn) | -0.586
27 | CCc1ncc(C(=O)N(CCOC)Cc2ccccc2F)cn1 | -2.26
28 | Cc1[nH]c2c(F)cccc2c1CC(=O)NCCCNc1cccnc1 | -11.8
29 | Cn1nnnc1SCc1cc2c(cc1Cl)OCO2 | -16
30 | COc1cc(N2CCC3(CCN(Cc4csc(C)n4)C3)CC2)ncn1 | -5.2
31 | CC(C)c1cc(C(=O)O)nc2[nH]c(=O)[nH]c(=O)c12 | -15.1
32 | OCCn1nccc1C1CCN(CCOc2ccccc2Cl)CC1 | -0.941
33 | Cc1cn[nH]c1C1COCCN1S(=O)(=O)c1cn[nH]c1 (stereo not drawn) | -0.517
34 | CCCN1C[C@H](NC(=O)c2cc(C)no2)[C@@H](c2ccc(OC)cc2)C1 | 0.817
35 | CC(C)c1cncnc1-c1cc(F)cc2c1OC(CN)C2 (stereo not drawn) | -1.8
36 | COc1cc(CNCC(O)c2ccccc2F)cc2c1OCO2 (stereo not drawn) | -14
37 | COc1cccc(CC(C)NC(=O)c2ccc(CNC(C)=O)cc2)c1 (stereo not drawn) | -2.82
38 | Cc1ccc(CN2C[C@@H]3[C@@H](C(=O)NCC4CC4)CCS(=O)(=O)[C@@H]3C2)cc1 | -1.55
39 | COc1cccc2cc(CNC(=O)N3CCCC(O)C3)oc12 (stereo not drawn) | 46.8
40 | O=C(N1CCOCC1)N1CCN(c2ccc(Cl)nn2)C(=O)C1 | -6.24
41 | O=C(c1cccnc1O)N1CCN(CCc2cccs2)CC1 | -6.9
42 | Cn1cc(N2C[C@@H]3CN(CC4CCOCC4)C[C@@H]3C2=O)cn1 | 2.05
43 | Cc1nc(O)cc(CN2C[C@H](NC(=O)C3CCC3)[C@@H](C3CC3)C2)n1 | -3.55
44 | O=C1CC2(CCN(Cc3cccs3)C2)CN1c1cccc(F)c1 (stereo not drawn) | -11
45 | N#Cc1ccc(NCc2cccc(OCC3CCCO3)c2)nc1 (stereo not drawn) | -8.7
46 | CS(=O)(=O)N1CCN(Cc2csc(-c3ncccn3)n2)CC1 | 15.5

Row | SMILES | cytotoxicity at 70.5 h [%]
47 | Cc1c(C)n(CC(O)CN2CCN(CCO)CC2)c2c(Cl)cccc12 (stereo not drawn) | 10
48 | COc1ncccc1CN1C[C@@H]2COC[C@]2(COCC(=O)N(C)C)C1 | -6.1
49 | CCN(CC)CCCNCC1CCOC(C)(C)C1 (stereo not drawn) | -3.64
50 | CCC(C(=O)Nc1ccc2c(C)n[nH]c2c1)N1CCCC1=O (stereo not drawn) | 21.5
51 | COC(=O)C1CCN(C(=O)c2ccc(N(C)S(C)(=O)=O)c(C)c2)CC1 | -10.1
52 | N#Cc1ccc(CSCCN2CCOCC2)cc1 | -5.15
53 | Cc1cnn(CC2CCCCN2C(=O)Cc2c(C)noc2Cl)c1 (stereo not drawn) | 24.1
54 | CC(C)NC(=O)CN1CCSC2(CCCCC2)C1 | 18.3
55 | Cc1cc2c(=O)n3c(nc2s1)CCN(C(=O)c1c(C)noc1C)CC3 | -3.89
56 | COCCC(=O)N1CCCC2(CCC(=O)N2CCOC)CC1 (stereo not drawn) | -7.23
57 | CC(=O)N1CCCCC1c1nc2c(c(N3CCCCC3)n1)CN(C)CC2 (stereo not drawn) | -1.02
58 | O=C(c1cccs1)N1CCCC(c2cc(C(F)F)n3ncnc3n2)C1 (stereo not drawn) | 0.957
59 | CC1CN(C)CCN1C(=O)c1cnc2onc(CC(C)(C)C)c2c1 (stereo not drawn) | -8.98
60 | NC(=O)c1cccc(CCNCc2cnc(C3CCC3)s2)c1 | 7.84
61 | CC1CN(C(=O)NCCCn2cncn2)CCO1 (stereo not drawn) | -1.85
62 | O=C(NCCc1nc2ccccc2s1)c1coc(CN2CCOCC2)c1 | 5.71
63 | COc1cc(N2CC[C@@H]3[C@@H](CC2)OCCN3CC2CC2)ncn1 | -4.1
64 | O=C(c1cc(-n2cccn2)ccn1)N1CCOc2ccc(F)cc21 | 0.748
65 | CO[C@H]1CN(C(=O)OC(C)(C)C)CC1NCc1ccn(C)c1 (stereo partly drawn) | -6.04
66 | Cn1ccc(C(=O)NC2CCC23CCN(Cc2cnn(C)c2)CC3)c1 (stereo not drawn) | -1.29
67 | CN(C)CCN(Cc1ccccn1)C(=O)Nc1cccc(F)c1 | -9.47
68 | CC(C)COCCC(=O)Nc1c(-c2ccc(F)cc2)ncn1C | -2.98
69 | O=C1CCC(=O)c2oc3ccc(Br)cc3c2N1 | -12.5

Row | SMILES | cytotoxicity at 70.5 h [%]
70 | NC(=O)c1ccnc(N2CCCC(CO)(Cc3ccc(F)cc3)C2)c1 (stereo not drawn) | -6.25
71 | CCc1nccn1-c1cncc(C2CCCN2)n1 (stereo not drawn) | -8.79
72 | COCCN1CCC2(COCCN(C(=O)Cc3cccs3)C2)C1 (stereo not drawn) | -5.29
73 | CCNC(=O)Nc1ccc(N2CCC(OC)CC2)c(C(F)(F)F)c1 | -1.82
74 | Cc1c[nH]c(C2CCCN(C(=O)CCc3c(C)n[nH]c3C)C2)n1 (stereo not drawn) | -2.32
75 | COc1ccccc1C(=O)N1CC(=O)N(CC(C)C)CC(O)C1 (stereo not drawn) | -1.35
76 | O=C(Cn1ncc(N2CCCC2)cc1=O)Nc1ccc2nccnc2c1 | -3.43
77 | CN1CC(c2ccccc2)CC2(CCN(CC(=O)N(C)C)CC2)C1 (stereo not drawn) | -8.78
78 | Cc1ccc(C(=O)N2CCC3(CC2)NC(=O)CC3c2ccccc2)cn1 (stereo not drawn) | 5.79
79 | O=C(N[C@@H]1CCNC[C@H]1O)c1cc(F)cc(Cl)c1 | -1.46
80 | COc1ccc(CN2CCC3(CCCN(c4ncc(F)cn4)C3)C2)cc1 (stereo not drawn) | 50.3
81 | COc1ccc(CC(=O)N2CCCC2c2nc(C)c(C)c(O)n2)cc1 (stereo not drawn) | -2.14
82 | CCOCc1nn(CC2CC2)c2c1CN(Cc1cccs1)CC2 | -6.81
83 | COCCn1ccc2c(C(=O)O)cccc21 | -3.92
84 | CCN1CCC(CNC(=O)C(c2ccccc2F)N(C)C)(N(C)C)CC1 (stereo not drawn) | -2.78
85 | CS(=O)(=O)NCc1ncn2c1CN(C(=O)C1CCCCC1)CCC2 | -4.09
86 | COc1nn(C)cc1C(=O)N1CCC(c2nnc(C3CC3)o2)CC1 | -1.01
87 | O=c1ccc(-c2cccs2)nn1CN1CCc2ccccc2C1 | -23.7
88 | Cc1cnccc1CNCc1ccc(OC23CCCN(CC2)C3)cc1 (stereo not drawn) | -6.06
89 | COC(=O)C(NC(=O)c1ccc(N(C)C)nc1)c1ccccc1 (stereo not drawn) | -8.4
90 | N#Cc1ccc(N2CCCC(CO)(CCOc3ccccc3)C2)nc1 (stereo not drawn) | -6.22
91 | Cc1cc(C(=O)N(C)CCCn2cccn2)nc(N)n1 | -5.11
92 | Cn1nccc1C(=O)NC(C)(C)c1noc(C(C)(C)C)n1 | -16.4

Row | SMILES | cytotoxicity at 70.5 h [%]
93 | CN(C)CC(=O)N1C[C@@H]2CC[C@H](Oc3ccccc3Cl)[C@@H]2C1 | -15.6
94 | CN(C)c1cc(C(=O)NCCc2nnc(-c3ccco3)[nH]2)ccn1 | -5.78
95 | CC(=O)N1CCC2(C1)c1ccccc1S(=O)(=O)N2Cc1ccccc1 (stereo not drawn) | 3.49
96 | CN(C)Cc1cnn(-c2ccccc2C(=O)NCCC2CCCN2C)c1 (stereo not drawn) | -0.0444
97 | CCCS(=O)(=O)CC(=O)Nc1ccsc1 | 7.39
98 | COc1ccc(Cl)cc1S(=O)(=O)N1C[C@@H]2CC[C@H](C1)N(C)C2=O | 6.39
99 | COc1ccc(CC(=O)N2CC[C@@H]3[C@H](CC2)N(C)CCS3(=O)=O)cc1 | -8.6
100 | NC(=O)COc1ccc(CNCc2ccc(F)cc2F)cc1 | -5.1
101 | Cc1csc(CN(C)S(=O)(=O)c2ccc(C)c(N(C)C)c2)n1 | -11.1
102 | CCC1CN(C)c2ccccc2CN1C(=O)Nc1ccc(C)cc1 (stereo not drawn) | -2.3
103 | O=C1CCC2(CCN(c3cccc(C(F)(F)F)n3)CC2)CN1CCO | -5.14
104 | Cn1ccc(C(=O)NCCOc2ccc(C(C)(C)C)cc2)cc1=O | -4.21
105 | O=C(NCC1CC1)c1nc(COc2ccc3c(c2)OCO3)no1 | 0.603
106 | COc1ccccc1OC1CCN(Cc2cnc(N(C)C)nc2)CC1 | -7.45
107 | COc1cc(N2CCCn3cnc(COC(C)C)c3C2)ncn1 | 13.3
108 | CS(=O)(=O)CCCNC1CCCN(Cc2noc(C3CC3)n2)C1 (stereo not drawn) | -7.07
109 | Fc1ccc(OCC2CCCO2)c(NCc2noc(C3CC3)n2)c1 (stereo not drawn) | -7.27
110 | CC(O)C1CCN(Cc2nccn2CC(F)(F)F)CC1 (stereo not drawn) | -7.97
111 | CC(=O)N1CCCC1c1ccc(C(=O)N2CCOCC2)s1 (stereo not drawn) | 14.5
112 | CN(C)C(=O)COC1COC2(CCN(c3ncccn3)CC2)C1 (stereo not drawn) | -7.32
113 | CCn1ccnc1CN1CCN(CCc2ccncc2)CC1C (stereo not drawn) | 7.35

Source: ChEMBL document CHEMBL3507680, “University of Dundee, Gates Library screen for HepG2 cell viability”
